Experimental data: patent US6749832B2, “Labelled ascorbic acid derivatives” (Amersham PLC, priority 1999, dated 2004)

Experiments:
[1] = test system: mineralising nodules of primary rat osteoblasts; assay: Autoradiography of mineralised bone nodules produced by cultured rat osteoblasts; format: cell-based; conditions: 21-day culture period
Description: Foetus heads were collected and sprayed with 70% isopropanol. Calvaria were then removed by cutting the skin from the top of the head, making one incision through the calvaria from the external auditory meatus across behind the parietal bones and a second forward to above the eye sockets. When all the calvaria were isolated, they were rinsed with PBS (Ca^2+ and Mg^2+-free), then incubated in trypsin at 37° C. for 10 minutes. Calvaria were transferred into 0.2% collagenase (type II) in HBSS for 30 minutes at 37° C. This collagenase digestion was repeated for 60 minutes to release the osteoblast populations. Supernatant was removed and spun down to obtain a cell pellet. The pellet was resuspended in media, viable cells counted and plated out into a T75 flask. Once confluent, cells were subcultured into 6-multiwell plates at 2×10^4-2×10^5 cells/well in 3 ml medium containing 1 mM β-glycerophosphate. In addition ascorbic acid (50 μg/ml), ^14C-ascorbic acid (19.6 μCi/ml) or ^14C-compound 7 (2.8 μCi/ml) were incubated with osteoblasts over the culture period. Cells were fed two to three times per week and cultured for up to 21 days. Nodules became macroscopically visible at around 7-10 days and commenced mineralisation (assessed by Alizarin red staining) soon after. […]

[2] = test system: MC3T3-E1 murine pre-osteoblast cells; assay: Standard cell uptake assay: competition for uptake of ^14C-ascorbic acid; format: cell-based; conditions: for IC50: Mus musculus, competition with ^14C-ascorbic acid uptake into MC3T3-E1 cells; for Competition: competition with 125 μM ^14C-ascorbic acid for uptake into MC3T3-E1 cells, 60 min
Description: Unlabelled ascorbic acid derivatives of the present invention have been tested for their ability to compete for uptake of ^14C-ascorbic acid into MC3T3-E1 cells, a murine pre-osteoblast cell line. MC3T3-E1 cells are grown in tissue culture plates and the appropriate assay solution containing a standard concentration of ^14C-ascorbic acid plus a competing concentration of ascorbic acid derivative added to each well. The amount of ^14C-ascorbic acid taken up by the cells in 60 min is then measured.
Standard Cell Uptake Assay
Transport buffer: 134 mM NaCl, 5.4 mM KCl, 1.8 mM CaCl2, 0.8 mM MgSO4, 20 mM HEPES, 10 mM glucose, pH7.3, stored at room temperature
Assay buffer: Transport buffer+40 μM […] ^14C-ascorbic acid (Amersham Pharmacia Biotech)
Stock solution: 50 μCi in 50 μl Analar water, stored at −20° C.
Assay solution: 200 nCi ^14C-ascorbic acid in 200 μl assay buffer/well (125 μM)
Stop buffer: 200 μM phloretin in assay buffer, chilled to 4° C.
Lysis solution: 0.1% SDS in Analar water
MC3T3-E1 murine pre-osteoblast cells were seeded in a 24-well plate at 2×10^5 cells/well in 1 ml minimal essential media plus 10% FCS, penicillin and streptomycin. Cells were grown overnight at 37° C., 5% CO2. Assay buffer and solutions were prepared on the morning of the assay. Cells were examined under the microscope for confluence and viability. Growth media was removed using a Liquipippette and each well washed with 2×200 μl assay buffer. The appropriate assay solution was added to each well and the plate incubated at 37° C. for the required time. To stop the reaction, 0.5 ml chilled stop buffer was added to each well. Each well was then washed with 0.5 ml stop buffer. Cells were lysed in 0.1% SDS solution for approximately 10 min and solutions transferred to scintillation vials. Each well was then washed with assay buffer and this wash solution also transferred to the appropriate scintillation vial. Scintillation fluid (5 ml) was added to each vial, the vials vortexed and counted on a Rackbeta counter.

[3] = reported in the literature; cited from earlier work

Compound | IC50 [2] [µM] | Competition [2] | other results
O=C1O[C@H]([C@@H](O)CO)C(O)=C1O [^14C-ascorbic acid] |  |  | association with / accumulation in mineralised bone nodules (autoradiography) [1]: associated with the mineralising nodules
O=C1O[C@H]([C@@H](O)COC(=O)c2ccc(I)cc2)C(O)=C1O [Compound 12, 6-O-(4-iodobenzoyl)-L-ascorbic acid] | 384 | Yes | 
O=C1O[C@H]([C@@H](O)C[18F])C(O)=C1O [^18F-DFA, 6-deoxy-6-[^18F]fluoro-L-ascorbic acid] |  |  | bone uptake [3]: very low
O=C1O[C@H]([C@@H](O)CO)C(O)=C1O [Ascorbic acid, ascorbic acid] | 258 | Yes | 
O=C1OC(C(O)CSc2ccccc2)C(O)=C1O (stereo not drawn) [Compound 16] | 1850 | Yes | competition for uptake of ^14C-ascorbic acid into MC3T3-E1 cells (text) [2]: competed; competition for uptake of ^14C-ascorbic acid into MC3T3-E1 cells (text) ([2]; listed as compound 16): very weak
O=C(/C=C/I)OCC(O)C1OC(=O)C(O)=C1O (stereo not drawn) [Compound 15] | 796 | Yes | 
